Source: PubChem BioAssay AID330 (DTP/NCI, 2004)
“And” between values parts separate entries of the source, which are not always exact repeats. Equal values may be shown once. Inconclusive results and toxic doses are left out. How the source made its calls: active means survival T/C of 150% or more; inactive means T/C below 125% in these data.

System: P388 leukemia ip, CD2F1 mice, survival T/C
Assay: NCI In Vivo Anticancer Drug Screen. Data for tumor model P388 Leukemia (intraperitoneal) in CD2F1 (CDF1) mice
Conditions: endpoint: median survival time, higher = longer survival
How it was run: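 Mice carrying the transplanted tumor received test compound or vehicle. Survival was recorded in each group, and the value is the treated-group measurement divided by that of the vehicle-treated control group.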

[1] = dose: 50.0 mg/kg/injection, schedule: Q01DX009 (ip), vehicle: saline with Tween-80
[2] = dose: 50.0 mg/kg/injection, schedule: Q04DX002 (ip), vehicle: saline
[3] = dose: 100.0 mg/kg/injection, schedule: Q04DX002 (ip), vehicle: saline
[4] = dose: 100.0 mg/kg/injection, schedule: Q01DX009 (ip), vehicle: saline with Tween-80
[5] = dose: 50.0 mg/kg/injection, schedule: Q01DX009 (ip), vehicle: Klucel (hydroxypropylcellulose) (HPC)
[6] = dose: 100.0 mg/kg/injection, schedule: Q01DX009 (ip), vehicle: Klucel (hydroxypropylcellulose) (HPC)
[7] = dose: 200.0 mg/kg/injection, schedule: Q01DX009 (ip), vehicle: Klucel (hydroxypropylcellulose) (HPC)
[8] = dose: 50.0 mg/kg/injection, schedule: Q01DX005 (ip), vehicle: saline with Tween-80
[9] = dose: 100.0 mg/kg/injection, schedule: Q01DX005 (ip), vehicle: saline with Tween-80
[10] = dose: 50.0 mg/kg/injection, schedule: Q01DX005 (ip), vehicle: Klucel (hydroxypropylcellulose) (HPC)
[11] = dose: 100.0 mg/kg/injection, schedule: Q01DX005 (ip), vehicle: Klucel (hydroxypropylcellulose) (HPC)
[12] = dose: 200.0 mg/kg/injection, schedule: Q01DX005 (ip), vehicle: Klucel (hydroxypropylcellulose) (HPC)
[13] = dose: 100.0 mg/kg/injection, schedule: Q04DX003 (ip), vehicle: saline with Tween-80
[14] = dose: 200.0 mg/kg/injection, schedule: Q04DX003 (ip), vehicle: saline with Tween-80
[15] = dose: 200.0 mg/kg/injection, schedule: Q01DX005 (ip), vehicle: saline with Tween-80

Measured: T/C

COc1ccc(/C=C(/C)[N+](=O)[O-])cc1OC
inactive: dose: 22.0 mg/kg/injection, schedule: Q01DX009 (ip), vehicle: saline with Tween-80 109 % of control | dose: 33.0 mg/kg/injection, schedule: Q01DX009 (ip), vehicle: saline with Tween-80 109 % of control | [1] 109 % of control | dose: 75.0 mg/kg/injection, schedule: Q01DX009 (ip), vehicle: saline with Tween-80 118 % of control | dose: 200.0 mg/kg/injection, schedule: Q01DX009 (ip), vehicle: saline 100 % of control

CC1(C)CSC(=S)SC1
inactive: dose: 25.0 mg/kg/injection, schedule: Q04DX002 (ip), vehicle: saline 100 % of control | [2] 97 % of control | dose: 100.0 mg/kg/injection, schedule: Q04DX002 (ip), vehicle: saline with Tween-80 110 % of control | [3] 103 % of control

[Cl][Pt+2][Cl].[NH-]C(c1ccccc1)C([NH-])c1ccccc1 (stereo unspecified)
inactive: dose: 1.56 mg/kg/injection, schedule: Q04DX002 (ip), vehicle: saline with Tween-80 112 % of control | dose: 3.12 mg/kg/injection, schedule: Q04DX002 (ip), vehicle: saline with Tween-80 103 % of control | dose: 3.13 mg/kg/injection, schedule: Q04DX002 (ip), vehicle: saline with Tween-80 111 % of control | dose: 6.25 mg/kg/injection, schedule: Q04DX002 (ip), vehicle: saline with Tween-80 117 % of control [middle of 4 runs]

O=c1[nH]cnc2nc(SCc3ccc([N+](=O)[O-])cc3)[nH]c12
inactive: dose: 60.0 mg/kg/injection, schedule: Q01DX005 (ip), vehicle: Klucel (hydroxypropylcellulose) (HPC) 105 % of control | dose: 120.0 mg/kg/injection, schedule: Q01DX005 (ip), vehicle: Klucel (hydroxypropylcellulose) (HPC) 102 % of control | dose: 240.0 mg/kg/injection, schedule: Q01DX005 (ip), vehicle: Klucel (hydroxypropylcellulose) (HPC) 108 % of control

CCOC(=O)c1ccc2[nH]c(-c3ccc(S(=O)(=O)F)cc3)cc(=O)c2c1
inactive: dose: 12.5 mg/kg/injection, schedule: Q01DX009 (ip), vehicle: saline with Tween-80 87 % of control | dose: 25.0 mg/kg/injection, schedule: Q01DX009 (ip), vehicle: saline with Tween-80 93 % of control | [1] 96 % of control | [4] 93 % of control

CCCCCOC(CN(C)C)C(Cl)(Cl)Cl (stereo unspecified)
inactive: [5] 100 % of control | [6] 100 % of control | [7] 101 % of control

CC(C)=Cc1ccccc1C1(C)C(c2ccccc2)=C1c1ccccc1
inactive: dose: 100.0 mg/kg/injection, schedule: Q04DX002 (ip), vehicle: Klucel (hydroxypropylcellulose) (HPC) 100 % of control | dose: 200.0 mg/kg/injection, schedule: Q04DX002 (ip), vehicle: Klucel (hydroxypropylcellulose) (HPC) 98 % of control | dose: 400.0 mg/kg/injection, schedule: Q04DX002 (ip), vehicle: Klucel (hydroxypropylcellulose) (HPC) 98 % of control

C/C=C1/CN2C3CC45c6ccccc6N(C)C4C2CC1C3C5O (stereo unspecified)
inactive: [8] 98 % of control | [9] 97 % of control

CCCSC(SCCC)C1OC(c2ccccc2)OC2COC(c3ccccc3)OC21 (stereo unspecified)
inactive: dose: 50.0 mg/kg/injection, schedule: Q01DX005 (ip), vehicle: Klucel + Tween-80 90 % of control | dose: 100.0 mg/kg/injection, schedule: Q01DX005 (ip), vehicle: Klucel + Tween-80 87 % of control | dose: 200.0 mg/kg/injection, schedule: Q01DX005 (ip), vehicle: Klucel + Tween-80 87 % of control

O=C1C=C\C(=C/C=C\C=C2/C=CC(=O)O2)O1
inactive: [10] 93 % of control | [11] 100 % of control | [12] 96 % of control

NC(=O)c1nc2c(Nc3ccccc3Br)nc(N)nc2nc1N
inactive: dose: 100.0 mg/kg/injection, schedule: Q01DX001 (ip), vehicle: saline 104 % of control | dose: 200.0 mg/kg/injection, schedule: Q01DX001 (ip), vehicle: saline 101 % of control | dose: 400.0 mg/kg/injection, schedule: Q01DX001 (ip), vehicle: saline 97 % of control

N#CC1=CNc2ccccc2N=C1N
inactive: [8] 104 % of control | [9] 99 % of control

CCSC(=O)c1ccc(S(=O)(=O)CC)cc1
inactive: [5] 102 % of control | [6] 98 % of control | [7] 106 % of control | dose: 400.0 mg/kg/injection, schedule: Q01DX009 (ip), vehicle: Klucel (hydroxypropylcellulose) (HPC) 107 % of control

O=C(Nc1cc(-c2ccccc2)[nH]n1)c1ccccc1F
inactive: dose: 30.0 mg/kg/injection, schedule: Q01DX005 (ip), vehicle: saline with Tween-80 97 % of control | dose: 60.0 mg/kg/injection, schedule: Q01DX005 (ip), vehicle: saline with Tween-80 97 % of control | dose: 120.0 mg/kg/injection, schedule: Q01DX005 (ip), vehicle: saline with Tween-80 97 % of control | dose: 240.0 mg/kg/injection, schedule: Q01DX005 (ip), vehicle: saline with Tween-80 90 % of control

COc1ccc(C(=O)N2C3C4C=CC(C4)C3N2C(=O)c2ccc(OC)cc2)cc1 (stereo unspecified)
inactive: dose: 25.0 mg/kg/injection, schedule: Q01DX005 (ip), vehicle: Klucel (hydroxypropylcellulose) (HPC) 99 % of control | [10] 92 % of control and 93 % of control | [11] 95 % of control | [12] 88 % of control

CC1C[C@@H]2[C@H]([C@@H](O)C[C@@]3(C)[C@H]2CC[C@]3(O)C(=O)CF)[C@@]2(C)CCC(=O)C=C12 (stereo partly specified)
inactive: [4] 100 % of control | [13] 109 % of control | dose: 200.0 mg/kg/injection, schedule: Q01DX009 (ip), vehicle: saline with Tween-80 95 % of control | [14] 109 % of control | dose: 400.0 mg/kg/injection, schedule: Q04DX003 (ip), vehicle: saline with Tween-80 100 % of control

NC(N)=NC(N)=Nc1ccc2ccc3cccc4ccc1c2c34
inactive: [13] 106 % of control | [14] 111 % of control

Cc1cc(NS(=O)(=O)c2ccc(N=c3c4ccccc4n(C)c4ccccc34)cc2)no1
inactive: [8] 103 % of control | [9] 102 % of control | [15] 103 % of control

CCCCN=C(N)N/N=C(\C)c1ccc(-c2ccccc2)cc1
inactive: dose: 1.25 mg/kg/injection, schedule: Q04DX002 (ip), vehicle: saline with Tween-80 102 % of control | dose: 2.5 mg/kg/injection, schedule: Q04DX002 (ip), vehicle: saline with Tween-80 104 % of control | dose: 5.0 mg/kg/injection, schedule: Q04DX002 (ip), vehicle: saline with Tween-80 104 % of control

CCOC(=O)CC(=O)CC(C(=O)OCC)C(=O)OCC
inactive: [8] 98 % of control | [9] 104 % of control | [15] 105 % of control

CC[N+](CC)=c1ccc2nc3c(cc(NCc4ccccc4)c4ccccc43)oc-2c1
inactive: dose: 12.5 mg/kg/injection, schedule: Q01DX005 (ip), vehicle: saline with Tween-80 103 % of control | dose: 25.0 mg/kg/injection, schedule: Q01DX005 (ip), vehicle: saline with Tween-80 100 % of control | [8] 105 % of control and 107 % of control

Cc1nn(C(=O)c2ccncc2)c(C)c1N=Nc1c(C)[nH]n(-c2ccccc2)c1=O
inactive: dose: 100.0 mg/kg/injection, schedule: Q04DX003 (ip), vehicle: Klucel (hydroxypropylcellulose) (HPC) 95 % of control | dose: 200.0 mg/kg/injection, schedule: Q04DX003 (ip), vehicle: Klucel (hydroxypropylcellulose) (HPC) 102 % of control | dose: 400.0 mg/kg/injection, schedule: Q04DX003 (ip), vehicle: Klucel (hydroxypropylcellulose) (HPC) 101 % of control

CN1Cc2[nH]c3c(c2C(O)C1)C(=O)CC(C)(C)C3 (stereo unspecified)
inactive: [2] 94 % of control | [3] 103 % of control | dose: 200.0 mg/kg/injection, schedule: Q04DX002 (ip), vehicle: saline 101 % of control
